From patent US4450115A, “Amino-alcohol derivatives” (Kyowa Hakko Kogyo Co., Ltd., priority 1979, dated 1984)
Read-outs that look alike come from different tables or passages of the source.

How the values were obtained:
in vivo = settings: mouse, male dd-strain mice
From the text: The test compounds were orally administered to male dd-strain mice weighing 20-25 g.

[1] = tested on: main artery of the dogs' organ; assay: Effect on organ blood flow; type: in vivo, mongrel dogs; settings: Canis lupus familiaris, iv, Table 5, 0.1 mg administration, femoral vein;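 further: percent change relative to blood flow before compound administration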
β2-adrenergic receptor = assay: β2 blocking activity (inhibition of Isoproterenol-induced decrease in diastolic blood pressure); type: in vivo, mongrel dogs; settings: Table 6; dogs, test compound 0.1 mg/kg; 0.5 μg/kg Isoproterenol i.v.
Method: (§1) In experiments (a), (b), (c) and (d), 3-4 male or female mongrel dogs (weight: 10-20 Kg) as one group were anesthetized by intravenous administration of 30 mg/kg of pentobarbital-Na. All compounds were dissolved in polyethylene glycol 400 and administered to the femoral vein.
(c-3) β2 blocking activity
In this test, 0.5 μg/kg of Isoproterenol is intravenously administered to the dogs to cause a decrease in diastolic blood pressure.

α-adrenergic receptor = assay: α blocking activity (inhibition of Norepinephrine-induced increase in systolic blood pressure); type: in vivo, mongrel dogs; settings: Table 6; dogs, test compound 0.1 mg/kg; 3 μg/kg Norepinephrine i.v.
Method: as §1
(c-1) α blocking activity
In this test, 3 μg/kg of Norepinephrine is intravenously administered to the dogs to cause an increase in systolic blood pressure.

β1-adrenergic receptor = assay: β1 blocking activity (inhibition of Isoproterenol-induced increase in heart rate); type: in vivo, mongrel dogs; settings: Table 6; dogs, test compound 0.1 mg/kg; 0.5 μg/kg Isoproterenol i.v.
Method: as §1
(c-2) β1 blocking activity
In this test, 0.5 μg/kg of Isoproterenol is intravenously administered to the dogs to cause an increase in the heart rate.

[2] = tested on: main artery of the dogs' organ; assay: Effect on organ blood flow; type: in vivo, mongrel dogs; settings: Canis lupus familiaris, iv, Table 7, femoral vein;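 further: percent change relative to blood flow before compound administration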
Method: as §1
(b) Effect on organ blood flow M (%)
In this test, 1 mg/kg of each compound shown in Tables 5 and 7 is administered to the dogs and an electromagnetic probe is attached to the main artery of the dogs' organ to measure the flow of blood.

Effect on heart rate = type: in vivo, mongrel dogs; settings: Table 7; dogs, 1 mg/kg, femoral vein
Method: as §1
(d) Effect on heart rate (beats/min.)

[3] = read-out: Organ blood flow, Crotch (percentage change)
[4] = read-out: Organ blood flow, Malleus (percentage change)

| SMILES | LD50 (in vivo; Table 6, oral) [mg/kg] | β2 blocking activity, percentage inhibition (β2-adrenergic receptor) [%] | α blocking activity, percentage inhibition (α-adrenergic receptor) | β1 blocking activity, percentage inhibition (β1-adrenergic receptor) [%] | change in vivo at 1 mg/kg [2, 3] [%] | change in vivo at 1 mg/kg [2, 4] [%] | Heart rate (decrease) (Effect on heart rate) [beats/min.] | also measured |
| --- | --- | --- | --- | --- | --- | --- | --- | --- |
| CCCC(=O)Nc1ccc(OCC(O)CNCC2COc3ccccc3O2)c(C(C)=O)c1 (stereo not drawn) [Compound 4, 1-(4-butyrylamido-2-acetyl)phenoxy-3-(1,4-benzodioxane-2-methaneamino)-2-propanol] |  |  |  |  |  |  |  | LD50 (in vivo; Table 5, oral): > 1000 mg/kg; change in vivo at 0.1 mg [1, 3]: -18%; change in vivo at 0.1 mg [1, 4]: -46% |
| CCOC(=O)Cc1ccc(C(O)CNC(C)CCc2ccccc2)cc1 (stereo not drawn) [Compound 21, 1-(4-ethoxycarbonylmethylphenyl)-2-(1-methyl-3-phenylpropylamino) ethanol] | > 1000 | -8 | +9% | -10 |  |  |  |  |
| CC(CCc1ccccc1)NCC(O)c1ccc(CC(N)=O)cc1 (stereo not drawn) [Compound 22, 1-(4-carbamoylmethylphenyl)-2-(1-methyl-3-phenylpropylamino) ethanol] | > 1000 | -11 | +19% | -8 |  |  |  |  |
| CCOC(=O)Cc1ccc(OCC(O)CNCCN(Cc2ccccc2)C(C)COc2ccccc2)cc1 (stereo not drawn) [Compound 26, 1-(4-ethoxycarbonylmethylphenoxy)-3-{β-[N-benzyl-N-(1-methyl-2-phenoxyethyl)]aminoethyl}amino-2-propanol] |  |  |  |  | -12 | 67 | -20 | LD50 (in vivo; Table 7, oral): > 1000 mg/kg |
| CC(=O)Nc1ccc(OCC(O)CNCCN(Cc2ccccc2)C(C)COc2ccccc2)cc1 (stereo not drawn) [Compound 27, 1-(4-acetamidophenoxy)-3-{β-[N-benzyl-N-(1-methyl-2-phenoxyethyl)]aminoethyl} amino-2-propanol] |  |  |  |  | 3 | 100 | -13 | LD50 (in vivo; Table 7, oral): > 1000 mg/kg |
| CCCC(=O)Nc1ccc(OCC(O)CNCCN(Cc2ccccc2)C(C)COc2ccccc2)c(C(C)=O)c1 (stereo not drawn) [Compound 28, 1-(4-butyrylamido-2-acetylphenoxy)-3-{β-[N-benzyl-N-(1-methyl-2-phenoxyethyl)]aminoethyl} amino-2-propanol] |  |  |  |  | 4 | 61 | -8 | LD50 (in vivo; Table 7, oral): 1000 to 2000 mg/kg |
| Cc1cccc(OCC(O)CNCCN(Cc2ccccc2)C(C)COc2ccccc2)c1 (stereo not drawn) [Compound 29, 1-(3-methylphenoxy)-3-{β-[N-benzyl-N-(1-methyl-2-phenoxyethyl)]aminoethyl} amino-2-propanol] |  |  |  |  | -45 | 100 | -4 |  |
| CC(COc1ccccc1)N(CCNCC(O)COc1ccc(CC(N)=O)cc1)Cc1ccccc1 (stereo not drawn) [Compound 30, 1-(4-carbamoylmethylphenoxy)-3-{β-[N-benzyl-N-(1-methyl-2-phenoxyethyl)]aminoethyl} amino-2-propanol] |  |  |  |  | -19 | 10 | -5 |  |
| COc1ccc(OCC(C)NCC(O)COc2ccccc2C#N)cc1 (stereo not drawn) [Compound 31] | 125 to 250 | -30 | -20% | -54 |  |  |  |  |
| CCOC(=O)Cc1ccc(OCC(O)CNC(C)COc2ccc(OC)cc2)cc1 (stereo not drawn) [Compound 32, 1-(4-ethoxycarbonylmethylphenoxy)-3-{1-methyl-2-(4-methoxyphenoxy)ethylamino}-2-propanol] | > 1000 | -2 | 0% | -11 |  |  |  |  |
| COc1ccc(OCC(C)NCC(O)COc2ccc(NC(C)=O)cc2)cc1 (stereo not drawn) [Compound 33, 1-(4-acetamidophenoxy)-3-{1-methyl-2-(4-methoxyphenoxy)ethylamino}-2-propanol] | > 1000 | -13 | -21% | -52 |  |  |  |  |
| COc1ccc(OCC(C)NCC(O)COc2ccc(CC(N)=O)cc2)cc1 (stereo not drawn) [Compound 34, 1-(4-carbamoylmethylphenoxy)-3-{1-methyl-2-(4-methoxyphenoxy)ethylamino}-2-propanol] | > 1000 | -57 | -36% | -55 |  |  |  |  |
